The values that follow come from ChEMBL document CHEMBL5678818, “Discovery of potent SOS1 inhibitors that block RAS activation via disruption of the RAS-SOS1 interaction” (Proc Natl Acad Sci U S A, 2019).

For assay [1], the target named is Calcium/calmodulin-dependent protein kinase type II subunit gamma (Homo sapiens) (UniProt Q13555). In words: Inhibition of CAMK2G (unknown origin) assessed as residual activity at 100 nM by KINOMEscan analysis relative to control.
For assay [2], the target named is Aurora kinase B (Homo sapiens) (UniProt Q96GD4). The assay is described as follows: Inhibition of AURKB (unknown origin) assessed as residual activity at 100 nM by KINOMEscan analysis relative to control.
Sequence of Aurora kinase B (Homo sapiens) (Q96GD4 whole entry): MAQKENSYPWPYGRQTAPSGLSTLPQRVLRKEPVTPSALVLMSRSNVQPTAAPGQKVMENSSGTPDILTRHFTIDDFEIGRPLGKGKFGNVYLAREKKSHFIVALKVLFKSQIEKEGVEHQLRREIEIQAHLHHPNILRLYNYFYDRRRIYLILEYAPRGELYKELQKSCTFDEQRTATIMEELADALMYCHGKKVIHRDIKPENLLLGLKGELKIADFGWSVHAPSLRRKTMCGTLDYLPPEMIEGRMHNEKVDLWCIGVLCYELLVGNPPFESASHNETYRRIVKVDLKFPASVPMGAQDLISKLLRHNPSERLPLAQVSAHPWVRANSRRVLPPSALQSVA
Assay [3] deals with Mitogen-activated protein kinase 11 (Homo sapiens) (UniProt Q15759). The assay is described as follows: Inhibition of p38-beta (unknown origin) assessed as residual activity at 100 nM by KINOMEscan analysis relative to control.
Sequence of Mitogen-activated protein kinase 11 (Homo sapiens) (Q15759 whole entry): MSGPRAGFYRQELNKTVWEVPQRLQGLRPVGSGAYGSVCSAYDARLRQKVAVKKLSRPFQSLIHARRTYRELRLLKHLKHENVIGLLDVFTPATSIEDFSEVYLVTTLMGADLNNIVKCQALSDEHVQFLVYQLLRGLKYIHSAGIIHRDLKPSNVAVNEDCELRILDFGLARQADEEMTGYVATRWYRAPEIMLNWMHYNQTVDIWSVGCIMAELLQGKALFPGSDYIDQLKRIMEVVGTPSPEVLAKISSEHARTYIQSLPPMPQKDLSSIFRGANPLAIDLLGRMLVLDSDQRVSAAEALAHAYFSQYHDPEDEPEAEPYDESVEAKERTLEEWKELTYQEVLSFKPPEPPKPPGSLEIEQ
For assay [4], the system named is Tyrosine-protein kinase ABL1 (Homo sapiens), P00519 [Y253F]. In words: Inhibition of phosphorylated ABL1 Y253F mutant (unknown origin) assessed as residual activity at 100 nM by KINOMEscan analysis relative to control.
Assay [5] concerns the target T1, Serine/threonine-protein kinase TBK1 (Homo sapiens) (UniProt Q9UHD2).
T1 sequence (whole entry): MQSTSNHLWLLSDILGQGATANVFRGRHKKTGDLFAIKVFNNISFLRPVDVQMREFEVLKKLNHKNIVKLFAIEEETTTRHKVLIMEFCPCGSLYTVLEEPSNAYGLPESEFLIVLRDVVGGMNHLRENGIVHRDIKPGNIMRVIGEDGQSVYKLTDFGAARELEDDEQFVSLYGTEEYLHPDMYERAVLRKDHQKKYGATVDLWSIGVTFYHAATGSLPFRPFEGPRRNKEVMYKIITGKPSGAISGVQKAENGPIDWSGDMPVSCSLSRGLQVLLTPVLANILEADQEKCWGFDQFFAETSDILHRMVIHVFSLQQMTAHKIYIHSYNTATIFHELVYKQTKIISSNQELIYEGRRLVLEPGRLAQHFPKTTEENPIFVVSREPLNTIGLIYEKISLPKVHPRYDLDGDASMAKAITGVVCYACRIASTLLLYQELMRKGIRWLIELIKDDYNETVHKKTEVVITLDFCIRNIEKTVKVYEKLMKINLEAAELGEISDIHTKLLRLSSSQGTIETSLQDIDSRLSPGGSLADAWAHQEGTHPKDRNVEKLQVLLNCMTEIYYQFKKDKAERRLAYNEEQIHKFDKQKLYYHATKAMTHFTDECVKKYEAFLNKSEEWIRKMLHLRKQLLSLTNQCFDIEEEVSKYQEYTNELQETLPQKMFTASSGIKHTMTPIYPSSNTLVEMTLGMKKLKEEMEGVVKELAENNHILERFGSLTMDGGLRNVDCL
In words: Inhibition of TBK1 (unknown origin) assessed as residual activity at 100 nM by KINOMEscan analysis relative to control.

Assay [6] deals with Leucine-rich repeat serine/threonine-protein kinase 2 (Homo sapiens) (UniProt Q5S007). In words: Inhibition of LRRK2 (unknown origin) assessed as residual activity at 100 nM by KINOMEscan analysis relative to control.
Sequence of Leucine-rich repeat serine/threonine-protein kinase 2 (Homo sapiens) (Q5S007 whole entry): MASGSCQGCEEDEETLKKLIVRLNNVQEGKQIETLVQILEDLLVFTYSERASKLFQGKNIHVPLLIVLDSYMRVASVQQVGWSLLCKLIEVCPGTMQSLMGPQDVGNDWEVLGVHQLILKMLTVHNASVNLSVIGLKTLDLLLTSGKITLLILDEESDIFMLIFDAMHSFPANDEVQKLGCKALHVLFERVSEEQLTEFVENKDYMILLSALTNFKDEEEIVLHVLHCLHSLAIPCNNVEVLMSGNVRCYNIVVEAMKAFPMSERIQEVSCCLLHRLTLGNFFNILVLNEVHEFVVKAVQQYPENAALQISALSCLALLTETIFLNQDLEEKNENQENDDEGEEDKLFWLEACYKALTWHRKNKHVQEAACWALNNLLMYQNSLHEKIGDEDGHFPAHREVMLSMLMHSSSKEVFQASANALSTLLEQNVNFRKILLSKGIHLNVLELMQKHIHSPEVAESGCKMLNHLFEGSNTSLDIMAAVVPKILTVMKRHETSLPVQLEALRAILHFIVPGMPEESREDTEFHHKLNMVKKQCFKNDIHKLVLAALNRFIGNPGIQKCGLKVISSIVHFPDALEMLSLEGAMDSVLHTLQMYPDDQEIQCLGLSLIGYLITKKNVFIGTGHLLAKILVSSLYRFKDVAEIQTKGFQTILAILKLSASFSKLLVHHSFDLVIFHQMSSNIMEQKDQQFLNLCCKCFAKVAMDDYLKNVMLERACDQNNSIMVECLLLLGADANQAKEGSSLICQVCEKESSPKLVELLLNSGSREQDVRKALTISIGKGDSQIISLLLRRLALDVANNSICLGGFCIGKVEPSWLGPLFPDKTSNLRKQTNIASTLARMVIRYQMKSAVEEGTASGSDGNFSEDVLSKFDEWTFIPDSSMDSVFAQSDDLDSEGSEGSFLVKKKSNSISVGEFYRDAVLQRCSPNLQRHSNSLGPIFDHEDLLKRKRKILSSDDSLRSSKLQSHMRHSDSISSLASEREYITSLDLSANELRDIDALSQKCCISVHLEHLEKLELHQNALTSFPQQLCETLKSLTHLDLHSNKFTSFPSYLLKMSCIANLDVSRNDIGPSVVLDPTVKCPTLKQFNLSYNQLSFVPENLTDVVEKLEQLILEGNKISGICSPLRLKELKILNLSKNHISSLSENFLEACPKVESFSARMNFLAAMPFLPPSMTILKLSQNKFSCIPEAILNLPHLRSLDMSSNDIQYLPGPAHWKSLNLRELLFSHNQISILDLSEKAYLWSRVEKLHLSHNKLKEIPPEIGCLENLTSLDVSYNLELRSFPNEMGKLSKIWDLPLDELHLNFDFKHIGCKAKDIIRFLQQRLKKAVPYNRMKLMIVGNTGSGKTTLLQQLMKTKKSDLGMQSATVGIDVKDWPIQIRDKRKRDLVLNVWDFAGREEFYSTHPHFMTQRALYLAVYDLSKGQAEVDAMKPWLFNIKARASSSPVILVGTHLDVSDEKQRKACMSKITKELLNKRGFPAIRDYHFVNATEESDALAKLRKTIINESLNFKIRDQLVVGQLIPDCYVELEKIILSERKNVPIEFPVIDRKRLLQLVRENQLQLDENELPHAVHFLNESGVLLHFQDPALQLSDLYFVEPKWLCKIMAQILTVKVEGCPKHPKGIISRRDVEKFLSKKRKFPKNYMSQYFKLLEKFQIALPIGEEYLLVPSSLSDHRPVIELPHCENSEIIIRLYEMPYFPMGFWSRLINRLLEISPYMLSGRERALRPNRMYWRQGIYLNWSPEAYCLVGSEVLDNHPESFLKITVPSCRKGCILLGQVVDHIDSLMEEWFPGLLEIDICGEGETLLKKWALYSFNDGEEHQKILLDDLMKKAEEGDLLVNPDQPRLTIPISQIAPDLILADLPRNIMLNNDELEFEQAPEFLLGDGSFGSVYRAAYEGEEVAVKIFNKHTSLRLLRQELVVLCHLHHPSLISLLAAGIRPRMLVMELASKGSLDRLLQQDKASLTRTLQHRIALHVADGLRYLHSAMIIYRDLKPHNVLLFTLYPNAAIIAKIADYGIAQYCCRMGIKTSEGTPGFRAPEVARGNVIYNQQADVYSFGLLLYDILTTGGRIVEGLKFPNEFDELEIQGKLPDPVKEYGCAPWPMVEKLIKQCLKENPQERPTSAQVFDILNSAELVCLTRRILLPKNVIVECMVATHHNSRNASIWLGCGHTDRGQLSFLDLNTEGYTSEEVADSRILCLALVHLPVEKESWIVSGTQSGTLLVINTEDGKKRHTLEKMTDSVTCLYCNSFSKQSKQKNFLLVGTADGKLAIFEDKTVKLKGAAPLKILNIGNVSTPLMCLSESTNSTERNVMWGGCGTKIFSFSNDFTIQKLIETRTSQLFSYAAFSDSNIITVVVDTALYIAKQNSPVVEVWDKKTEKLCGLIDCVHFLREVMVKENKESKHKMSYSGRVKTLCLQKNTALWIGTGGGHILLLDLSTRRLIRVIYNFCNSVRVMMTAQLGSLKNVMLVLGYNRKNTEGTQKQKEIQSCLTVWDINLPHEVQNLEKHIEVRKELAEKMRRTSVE
Assay [7] addresses T2, Son of sevenless homolog 1 (Homo sapiens, UniProt Q07889).
T2 sequence (Q07889 whole entry): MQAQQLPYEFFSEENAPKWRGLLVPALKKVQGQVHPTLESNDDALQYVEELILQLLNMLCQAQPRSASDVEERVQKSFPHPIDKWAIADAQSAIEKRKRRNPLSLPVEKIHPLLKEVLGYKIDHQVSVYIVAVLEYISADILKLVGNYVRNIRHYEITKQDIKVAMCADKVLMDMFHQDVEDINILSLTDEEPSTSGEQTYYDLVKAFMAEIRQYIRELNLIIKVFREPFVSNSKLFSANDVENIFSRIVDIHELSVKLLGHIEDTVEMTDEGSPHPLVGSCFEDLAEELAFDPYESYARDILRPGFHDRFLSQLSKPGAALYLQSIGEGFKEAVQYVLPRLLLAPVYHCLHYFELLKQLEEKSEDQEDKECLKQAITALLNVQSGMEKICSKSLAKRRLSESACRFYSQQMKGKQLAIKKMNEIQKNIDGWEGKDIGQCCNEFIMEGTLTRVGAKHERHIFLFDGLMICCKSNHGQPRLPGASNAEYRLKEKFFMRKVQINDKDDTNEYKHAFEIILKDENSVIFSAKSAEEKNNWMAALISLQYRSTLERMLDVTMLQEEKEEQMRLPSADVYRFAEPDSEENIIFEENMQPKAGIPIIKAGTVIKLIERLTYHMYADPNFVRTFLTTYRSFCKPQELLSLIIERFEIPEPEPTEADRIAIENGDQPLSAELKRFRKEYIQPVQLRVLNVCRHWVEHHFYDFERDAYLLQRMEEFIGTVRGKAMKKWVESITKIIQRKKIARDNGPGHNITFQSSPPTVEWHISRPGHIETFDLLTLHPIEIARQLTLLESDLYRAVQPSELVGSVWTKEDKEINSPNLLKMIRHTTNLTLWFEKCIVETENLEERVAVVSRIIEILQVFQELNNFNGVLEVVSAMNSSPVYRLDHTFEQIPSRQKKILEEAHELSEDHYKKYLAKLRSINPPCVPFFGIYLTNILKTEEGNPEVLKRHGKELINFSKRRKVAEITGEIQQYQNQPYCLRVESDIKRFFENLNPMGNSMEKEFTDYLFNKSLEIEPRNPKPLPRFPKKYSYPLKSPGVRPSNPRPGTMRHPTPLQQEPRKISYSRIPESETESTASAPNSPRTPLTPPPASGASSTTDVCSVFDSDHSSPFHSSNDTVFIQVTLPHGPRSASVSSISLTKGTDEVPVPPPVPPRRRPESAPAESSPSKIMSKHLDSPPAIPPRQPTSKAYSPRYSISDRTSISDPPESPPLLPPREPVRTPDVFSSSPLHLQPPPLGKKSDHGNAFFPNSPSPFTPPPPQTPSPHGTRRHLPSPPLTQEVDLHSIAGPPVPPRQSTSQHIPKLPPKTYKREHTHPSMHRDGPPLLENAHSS
In words: Inhibition of N-terminal His10-tagged wild-type recombinant human SOS1 catalytic domain (564 to 1049 residues) expressed in Escherichia coli assessed as reduction in wild-type KRAS activation preincubated for 10 mins with KRAS followed by SOS1 addition measured after 30 mins in presence of EDA-GTP-DY-647P1 by HTRF analysis.

Sequence of Calcium/calmodulin-dependent protein kinase type II subunit gamma (Homo sapiens) (Q13555 whole entry): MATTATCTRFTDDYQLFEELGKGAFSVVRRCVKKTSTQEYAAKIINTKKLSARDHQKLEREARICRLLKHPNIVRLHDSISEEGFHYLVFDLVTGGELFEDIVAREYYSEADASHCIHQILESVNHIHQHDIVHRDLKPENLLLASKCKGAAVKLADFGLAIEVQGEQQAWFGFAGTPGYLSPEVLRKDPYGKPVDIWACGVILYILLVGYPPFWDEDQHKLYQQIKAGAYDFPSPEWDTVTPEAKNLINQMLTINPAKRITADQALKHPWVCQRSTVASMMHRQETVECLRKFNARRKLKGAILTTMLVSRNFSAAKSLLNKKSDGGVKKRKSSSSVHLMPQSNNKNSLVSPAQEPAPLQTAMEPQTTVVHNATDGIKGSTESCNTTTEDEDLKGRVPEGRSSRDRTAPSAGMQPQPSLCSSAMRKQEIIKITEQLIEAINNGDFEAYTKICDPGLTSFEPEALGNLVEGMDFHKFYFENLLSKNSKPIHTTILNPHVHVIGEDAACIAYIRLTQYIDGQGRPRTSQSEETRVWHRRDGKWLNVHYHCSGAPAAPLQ

As to `COc1cc2ncnc(N[C@H](C)c3cccc4ccccc34)c2cc1OC`, the Activity turned out to be 60% in assay [1]; 96% in assay [2]; 81% in assay [3]; 98% in assay [4]; 96% in assay [5]; 82% in assay [6].
Regarding `COc1cc2nc(C)nc(NC(C)c3ccc(-c4cnc5n4CCC5)s3)c2cc1OC` (configuration not stated), in assay [7], the IC50 came out at 550 nM.
